Common to all, as to format: cell-based
The subject of experiment [1] is A2780 (ovarian) cells. Briefly: Anti-proliferative activity, Cell-Titre luminescent viability assay. Conditions: Homo sapiens, 72 h exposure, Cell-Titre luminescent reagent. On the procedure:
(§1) The ability of compounds of the disclosure to inhibit the proliferation of cancer cells representative of non-small cell lung cancer and ovarian cancer (Table 1), and pancreatic cancer, colorectal cancer and prostate cancer (Table 2) was assessed. Briefly, a predetermined number of cells as calculated from cell growth assays for each of the cell lines employed were seeded into their respective culture medium (using ATCC culture parameters—http://www.atcc.org) and cultured for 24 h at 37° C. and 5% CO2 in 96-well culture plates. Once attached, each cell line was then exposed to various concentrations of each respective analogue (100, 30, 10, 3, 1 and 0.3 µM or 30, 10, 3, 1, 0.3 and 0.1 μM), cultured for a further 72 h and exposed to Cell-Titre luminescent reagent (100 μL/well) for a further 30 min. Luminescence was captured using an EnVision multilabel reader and the data for each analogue concentration compared against no treatment control. Cell viability was normalised to control (vehicle alone) and dose response curves, and half maximal effective concentration (EC50) values were determined using Graph Pad Prism 6 (nonlinear regression sigmoidal dose-response variable slope).

The subject of experiment [2] is A549 (NSCLC) cells. Described as above. Conditions: Homo sapiens, 72 h exposure, Cell-Titre luminescent reagent. As for the experimental part: as §1
Experiment [3] concerns SK-N-SH neuroblastoma cells. Briefly: Cytotoxicity assay, MTS viability. Conditions: Homo sapiens, 72 hours. As for the experimental part:
The ability of compounds of the disclosure to inhibit the proliferation of SK—N—SH neuroblastoma cells was assessed. The SK—N—SH cell line was maintained as a monolayer in Dulbeccos Modified Eagles medium (DMEM) supplemented with 10% foetal bovine serum (FBS) and grown at 37° C. in a humidified atmosphere with 5% CO2. For the cytotoxicity assay, SK—N—SH cells were seeded at a density of 2×10^3 cells per well in 96-well plates. The cells were treated with serial dilutions of the test compounds (1:2 starting concentration 100 µM) and viability measured after 72 hours using a standard MTS assay. Cell viability was normalised to control (vehicle alone) and dose response curves and EC50 values (Table 3) were determined using Graph Pad Prism 6.

For orientation: IC50 means the concentration at which inhibition is half-maximal. Read a low IC50 as greater potency in that assay. In the case of `CC(C)(C)c1ccc(NC(=O)c2ccn(S(=O)(=O)c3ccc4[nH]ccc4c3)c2)cc1` [Compound 100, 1-((1H-indol-5-yl)sulfonyl)-N-(4-(tert-butyl)phenyl)-1H-pyrrole-3-carboxamide], the IC50 was 8.87 µM in experiment [1], 11 µM in experiment [2] and 7.51 µM in experiment [3].
The matching figures for `CC(C)c1ccc(NC(=O)c2ccn(S(=O)(=O)c3ccc4[nH]ccc4c3)c2)cc1` [Compound 37, 1-((1H-indol-5-yl)sulfonyl)-N-(4-isopropylphenyl)-1H-pyrrole-3-carboxamide]: 4.3 µM, 5.8 µM and 10.8 µM.
In the same order, the values of `CCC(C)c1ccc(NC(=O)C2CCN(S(C)(=O)=O)CC2)cc1` (stereo not drawn) [Compound 29, N-(4-(sec-butyl)phenyl)-1-(methylsulfonyl) piperidine-4-carboxamide] are above 100 µM, above 100 µM and above 100 µM.
The matching figures for `CCC(C)c1ccc(NC(=O)c2ccn(S(=O)(=O)c3cc(C(N)=O)n(C)c3)c2)cc1` (stereo not drawn) [Compound 18, 4-((3-((4-(sec-butyl)phenyl)carbamoyl)-1H-pyrrol-1-yl)sulfonyl)-1-methyl-1H-pyrrole-2-carboxamide]: 6.8 µM, 27.6 µM and 22.3 µM.
With `Cc1ccc(NC(=O)N2CCN(S(=O)(=O)c3ccc4[nH]ccc4c3)CC2)cc1O` [Compound 16, 4-((1H-indol-5-yl)sulfonyl)-N-(3-hydroxy-4-methylphenyl)piperazine-1-carboxamide], the IC50 in experiment [1] stood at 28.8 µM; in experiment [2], 17.3 µM; in experiment [3], 31.5 µM.
In the same order, the values of `CCC(C)c1ccc(NC(=O)c2ccn(S(=O)(=O)c3ccc4[nH]cc(C)c4c3)c2)cc1` (stereo not drawn) [Compound 58, N-(4-(sec-butyl)phenyl)-1-((3-methyl-1H-indol-5-yl)sulfonyl)-1H-pyrrole-3-carboxamide] are 2.1 µM, 3.8 µM and 14 µM.
The matching figures for `CCCc1ccc(NC(=O)c2ccn(S(=O)(=O)c3ccc4[nH]ccc4c3)c2)cc1` [Compound 96, 1-((1H-indol-5-yl)sulfonyl)-N-(4-propylphenyl)-1H-pyrrole-3-carboxamide]: 8.85 µM, 12.8 µM and 12.2 µM.
Turning to `O=C(Nc1ccc(C(F)(F)F)cc1)N1CCN(S(=O)(=O)c2ccc3[nH]ccc3c2)CC1` [Compound 17, 4-((1H-indol-5-yl)sulfonyl)-N-(4-(trifluoromethyl)phenyl)piperazine-1-carboxamide], the IC50 in experiment [1] came to 13.9 µM; in experiment [2] it was 6.5 µM; in experiment [3] it was 22.9 µM.
The matching figures for `O=C(Nc1ccc(F)c(F)c1)c1ccn(S(=O)(=O)c2ccc3[nH]ccc3c2)c1` [Compound 68, 1-((1H-indol-5-yl)sulfonyl)-N-(3,4-difluorophenyl)-1H-pyrrole-3-carboxamide]: 8.53 µM, 16.6 µM and 19.1 µM.
For the compound `O=C(Nc1ccc(C(F)(F)F)cc1)c1ccn(S(=O)(=O)c2ccc3c(c2)CCN3)c1` [Compound 23, 1-(indolin-5-ylsulfonyl)-N-(4-(trifluoromethyl)phenyl)-1H-pyrrole-3-carboxamide], the values for the IC50 in experiment [1], in experiment [2] and in experiment [3] were 5.3 µM, 11.6 µM and 12.8 µM, respectively.
In the case of `Cn1cc(S(=O)(=O)N2CCN(C(=O)Nc3ccc(C(F)(F)F)cc3)CC2)cc1C(N)=O` [Compound 11, 4-((5-carbamoyl-1-methyl-1H-pyrrol-3-yl)sulfonyl)-N-(4-(trifluoromethyl)phenyl)piperazine-1-carboxamide], the figures for the IC50 in experiment [1], in experiment [2] and in experiment [3] were 48.4 µM, above 100 µM and above 100 µM, respectively.
With `O=C(Nc1cccc(C(F)(F)F)c1)C1CCN(S(=O)(=O)c2ccc3[nH]ccc3c2)CC1` [Compound 63, 1-((1H-indol-5-yl)sulfonyl)-N-(3-(trifluoromethyl)phenyl) piperidine-4-carboxamide], the IC50 in experiment [1] is 10.9 µM; in experiment [2] it was 12.6 µM; in experiment [3], 13.5 µM.
As to `Cn1cc(S(=O)(=O)N2CCC(C(=O)Nc3ccccc3)CC2)cc1C(N)=O` [Compound 30, 1-((5-carbamoyl-1-methyl-1H-pyrrol-3-yl)sulfonyl)-N-phenylpiperidine-4-carboxamide], the IC50 in experiment [1] and in experiment [2] was above 100 µM each time.
Consider `N#Cc1ccc(NC(=O)c2ccn(S(=O)(=O)c3ccc4[nH]ccc4c3)n2)cc1` [Compound 79, 1-((1H-indol-5-yl)sulfonyl)-N-(4-cyanophenyl)-1H-pyrazole-3-carboxamide], for which the IC50 was above 30 µM in experiment [1] and 6.72 µM in experiment [2].
The matching figures for `O=C(Nc1ccc(Cl)cc1)c1ccn(S(=O)(=O)c2ccc3[nH]ccc3c2)c1` [Compound 66, 1-((1H-indol-5-yl)sulfonyl)-N-(4-chlorophenyl)-1H-pyrrole-3-carboxamide]: 13.6 µM and 15.9 µM.
As to `CCc1ccccc1NC(=O)c1ccn(S(=O)(=O)c2ccc3[nH]ccc3c2)c1` [Compound 42, 1-((1H-indol-5-yl)sulfonyl)-N-(2-ethylphenyl)-1H-pyrrole-3-carboxamide], the figures for the IC50 in experiment [1] and in experiment [2] were 13.4 µM and 9.8 µM, respectively.
On to `CNC(=O)C1CCN(S(=O)(=O)c2cc(C(N)=O)n(C)c2)CC1` [Compound 32, 1-((5-carbamoyl-1-methyl-1H-pyrrol-3-yl)sulfonyl)-N-methylpiperidine-4-carboxamide], for which the IC50 in experiment [1] and in experiment [2] was above 100 µM in each case.
In the case of `CCC(C)c1ccc(CCNC(=O)c2ccn(S(=O)(=O)c3ccc(C(C)(C)C)cc3)c2)cc1` (stereo not drawn) [Compound 88, N-(4-(sec-butyl)phenethyl)-1-((4-(tert-butyl)phenyl)sulfonyl)-1H-pyrrole-3-carboxamide], the IC50 in experiment [1] and in experiment [2] was above 30 µM each time.
Consider `CCC(C)c1ccc(NC(=O)C2CCN(S(=O)(=O)c3cc(C(=O)N(C)C)n(C)c3)CC2)cc1` (stereo not drawn) [Compound 27, N-(4-(sec-butyl)phenyl)-1-((5-(dimethylcarbamoyl)-1-methyl-1H-pyrrol-3-yl)sulfonyl)piperidine-4-carboxamide], for which the IC50 in experiment [1] and in experiment [2] was above 100 µM each time.
For `CCC(C)c1ccc(NC(=O)N2CCN(S(=O)(=O)c3ccc4c(c3)CCN4)CC2)cc1` (stereo not drawn) [Compound 12, N-(4-(sec-butyl)phenyl)-4-(indolin-5-ylsulfonyl)piperazine-1-carboxamide], the IC50 in experiment [1] and in experiment [2] was above 100 µM each time.
Turning to `O=C(Nc1ccc2c(c1)OCO2)c1ccn(S(=O)(=O)c2ccc3[nH]ccc3c2)c1` [Compound 104, 1-((1H-indol-5-yl)sulfonyl)-N-(benzo[d][1,3]dioxol-5-yl)-1H-pyrrole-3-carboxamide], the IC50 in experiment [1] is 8.92 µM; in experiment [2] it was above 30 µM.
The matching figures for `Cc1cccc(C)c1NC(=O)c1ccn(S(=O)(=O)c2ccc3[nH]ccc3c2)c1` [Compound 51, 1-((1H-indol-5-yl)sulfonyl)-N-(2,6-dimethylphenyl)-1H-pyrrole-3-carboxamide]: 7.2 µM and 17.9 µM.
Regarding `CCCc1ccc(NC(=O)c2ccn(S(=O)(=O)c3ccc4[nH]ccc4c3)n2)cc1F` [Compound 110, 1-((1H-indol-5-yl)sulfonyl)-N-(3-fluoro-4-propylphenyl)-1H-pyrazole-3-carboxamide], the figures for the IC50 in experiment [1] and in experiment [2] were 7.5 µM and 8.06 µM, respectively.
In the same order, the values of `O=C(Nc1ccc2c(c1)OCO2)c1ccn(S(=O)(=O)c2ccc3[nH]ccc3c2)n1` [Compound 117, 1-((1H-indol-5-yl)sulfonyl)-N-(benzo[d][1,3]dioxol-5-yl)-1H-pyrazole-3-carboxamide] are above 30 µM and above 30 µM.
The matching figures for `CCC(C)c1ccc(NC(=O)c2ccn(S(=O)(=O)c3ccc(C(C)(C)C)cc3)c2)cc1` (stereo not drawn) [Compound 91, N-(4-(sec-butyl)phenyl)-1-((4-(tert-butyl)phenyl)sulfonyl)-1H-pyrrole-3-carboxamide]: above 30 µM and above 30 µM.
The matching figures for `Cc1ccc(NC(=O)N2CCN(S(=O)(=O)c3cc(C(N)=O)n(C)c3)CC2)cc1O` [Compound 10, 4-((5-carbamoyl-1-methyl-1H-pyrrol-3-yl)sulfonyl)-N-(3-hydroxy-4-methylphenyl)piperazine-1-carboxamide]: above 100 µM and above 100 µM.
Take `O=C(Nc1ccc(F)c(Cl)c1)c1ccn(S(=O)(=O)c2ccc3[nH]ccc3c2)c1` [Compound 70, 1-((1H-indol-5-yl)sulfonyl)-N-(3-chloro-4-fluorophenyl)-1H-pyrrole-3-carboxamide]: the IC50 was determined as 12.2 µM in experiment [1] and 13.8 µM in experiment [2].

These data come from patent US12528792B2, “Sulfonamide compounds and the use thereof in the treatment of cancer” (TROBIO THERAPEUTICS PTY LTD, priority 2019, dated 2026).
